Assay results as given in patent publication US20240083839A1, “COMPOSITIONS AND METHODS FOR TREATING NEURODEGENERATIVE DISEASES AND DISORDERS” (The Regents of the University of California, priority 2020, published 2024).
“And” between values parts separate entries of the source, which are not always exact repeats. Identical values can stand only once. Counter-ions that a name gives are not always drawn.

Columns and labels:
PRMT4 = target: T1, PRMT4 (Homo sapiens, UniProt Q86X55); experiment: Cell-free PRMT enzyme activity assay, PRMT4; assay type: biochemical; conditions: A03 at 5 μM
T1 sequence (Q86X55 1-608): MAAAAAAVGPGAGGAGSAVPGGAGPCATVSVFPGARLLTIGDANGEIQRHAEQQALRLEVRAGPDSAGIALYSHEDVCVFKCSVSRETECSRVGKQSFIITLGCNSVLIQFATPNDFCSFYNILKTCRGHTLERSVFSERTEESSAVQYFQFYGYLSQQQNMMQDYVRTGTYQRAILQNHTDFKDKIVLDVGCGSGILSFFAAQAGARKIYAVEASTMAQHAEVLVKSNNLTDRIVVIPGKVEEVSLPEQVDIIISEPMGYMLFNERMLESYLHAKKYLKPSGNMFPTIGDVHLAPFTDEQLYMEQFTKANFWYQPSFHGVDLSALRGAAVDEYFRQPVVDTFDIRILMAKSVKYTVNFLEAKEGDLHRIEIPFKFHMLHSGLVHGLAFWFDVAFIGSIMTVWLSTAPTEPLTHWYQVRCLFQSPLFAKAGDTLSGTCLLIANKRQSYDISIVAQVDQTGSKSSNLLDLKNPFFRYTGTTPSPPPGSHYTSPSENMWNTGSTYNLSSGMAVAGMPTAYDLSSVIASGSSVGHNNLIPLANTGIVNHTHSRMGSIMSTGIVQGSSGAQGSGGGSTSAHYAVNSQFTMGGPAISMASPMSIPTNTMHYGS
Description: (§1) Due both the sequence homology and functional similarity of PRMT family members, in follow-up experiments PRMT 1, 4, and 8 inhibitors as well as assays for inhibition by those PRMTs were used. […] This profile may be due to its binding to an allosteric site on the PRMT8 enzyme and needs further kinetic analysis. […] The mode & inhibition kinetics to be investigated in the renewal grant.

[1] = system: SirT1 levels in SH-SY5Y cells; experiment: SirT1 in SH-SY5Y cells transiently transfected with ApoE4; assay type: cell-based, human
[2] = system: PRMT8 protein levels in E4-N2a cells; experiment: Immunoblot of PRMT8 protein levels in E4-N2a cells; assay type: cell-based, murine; conditions: 10 μM
Description: as §1

SirT1 mRNA = SirT1 mRNA level in N2a-E4 cells; assay type: cell-based, mouse; conditions: 10 hour time point
PRMT8 = PRMT8 (Homo sapiens, UniProt Q9NR22); experiment: Cell-free PRMT enzyme activity assay, PRMT8; assay type: biochemical; conditions: for PRMT8 inhibition: A03 at 5 μM
Chain of PRMT8 (Q9NR22 whole entry, species assumed): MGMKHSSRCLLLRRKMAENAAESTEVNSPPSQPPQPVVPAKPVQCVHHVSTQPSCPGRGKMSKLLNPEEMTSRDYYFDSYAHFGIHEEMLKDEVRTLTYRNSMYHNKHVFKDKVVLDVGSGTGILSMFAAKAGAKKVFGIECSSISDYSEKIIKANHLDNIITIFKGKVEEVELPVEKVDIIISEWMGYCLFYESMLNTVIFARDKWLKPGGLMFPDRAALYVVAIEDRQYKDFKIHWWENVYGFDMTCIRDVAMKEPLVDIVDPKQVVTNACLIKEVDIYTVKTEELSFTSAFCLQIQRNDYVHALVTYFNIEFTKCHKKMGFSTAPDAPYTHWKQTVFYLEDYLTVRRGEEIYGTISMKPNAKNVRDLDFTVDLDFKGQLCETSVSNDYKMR
Description: as §1
Testing of additional A03 analogs are ongoing. For affinity purification, DDL215 that was used through clicking to beads. […] An initial correlation between cell-free PRMT8 inhibition and neuronal SirT1 enhancement (in cells) at 5 μM was seen (FIG. 10B).

[3] = system: ApoE4 and RNA polymerase II binding to the SirT1 promoter; experiment: ChIP and real time PCR of SirT1 promoter binding in N2a-E4 cells; assay type: cell-based, mouse; conditions: 6 hour treatment (A03 50 μM), versus DMSO
Protocol: Cells were then fixed with formaldehyde, lysed with SDS buffer, and sonicated using a temperature-controlled Epishear sonication platform at −20° C. to obtain DNA fragments between 200-1000 bp. An EZ-ChIP kit (EMD Millipore) was then used for chromatin immunoprecipitation using anti-ApoE4 mAb (Novus Biologicals) and anti-RNA Polymerase II mAb (Millipore) antibodies. After ChIP crosslinks were reversed and purified ChIP DNA was then analyzed by real time quantitative PCR using SYBR green master mix (Thermo) in a CFX Connect Real-Time PCR Detection System (Bio-Rad) using primers to amplify the ApoE4 binding site in the mouse SirT1 promoter: 5′[…]3′ and 5′[…]3′ (amplicon size of 125 bp). The Signals from each sample were normalized with signal of the input followed by the delta-delta-Ct method and fold change calculated with respect to the vehicle (DMSO).

PRMT1 = PRMT1 (Homo sapiens, UniProt Q99873); experiment: Cell-free PRMT enzyme activity assay, PRMT1; assay type: biochemical; conditions: A03 at 5 μM
Chain of PRMT1 (Q99873 whole entry, species assumed): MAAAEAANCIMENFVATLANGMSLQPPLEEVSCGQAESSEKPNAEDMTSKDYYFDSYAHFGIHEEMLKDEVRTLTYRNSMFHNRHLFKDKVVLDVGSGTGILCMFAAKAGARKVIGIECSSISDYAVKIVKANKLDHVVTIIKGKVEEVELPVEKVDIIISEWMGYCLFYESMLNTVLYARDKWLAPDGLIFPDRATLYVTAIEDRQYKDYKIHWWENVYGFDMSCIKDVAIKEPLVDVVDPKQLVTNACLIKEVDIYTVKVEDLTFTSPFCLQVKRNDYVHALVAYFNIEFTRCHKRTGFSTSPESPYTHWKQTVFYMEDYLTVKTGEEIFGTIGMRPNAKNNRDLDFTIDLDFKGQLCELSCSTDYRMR
Description: Due both the sequence homology and functional similarity of PRMT family members, in follow-up experiments PRMT 1, 4, and 8 inhibitors as well as assays for inhibition by those PRMTs were used. […] The mode & inhibition kinetics to be investigated in the renewal grant.

[4] = system: SirT1 levels in N2a-E4 cells; experiment: SirT1 levels by AlphaLISA in ApoE4-transfected N2a cells; assay type: cell-based, murine
Protocol: Prompted by the emerging importance of the associations between ApoE4 and the expression/protein levels of SirT1, high-throughput screening (HTS) of the UCLA compound library was performed using AlphaLISA to detect SirT1 levels in murine neuroblastoma cells stably transfected with ApoE4 (E4-N2a) to identify SirT1 enhancers. […] In the in vivo study, mice were treated orally at 40 mkd (20 mg/kg BID) for 56 days and underwent assessment of cognition in the Novel Object Recognition (NOR) testing paradigm. […] The performance of A03-treated E4-AD mice (FIG. 5A) improved to level of non-transgenic vehicle-treated mice.

E4-AD mice = experiment: Oral treatment of ApoE4-expressing AD model mice (NOR, brain SirT1); assay type: in vivo, mouse; conditions: ApoE4:5×FAD-TR transgenic mice
Protocol: Prompted by the emerging importance of the associations between ApoE4 and the expression/protein levels of SirT1, high-throughput screening (HTS) of the UCLA compound library was performed using AlphaLISA to detect SirT1 levels in murine neuroblastoma cells stably transfected with ApoE4 (E4-N2a) to identify SirT1 enhancers. […] In the in vivo study, mice were treated orally at 40 mkd (20 mg/kg BID) for 56 days and underwent assessment of cognition in the Novel Object Recognition (NOR) testing paradigm.

Row | Structure (SMILES) | PAMPA (PAMPA) | SirT1 SOμM [4] | SirT1 SμM [4] | other results
1 | CC(N)C(=O)OC(C)(C)Cc1ccc(Cl)cc1 (stereo not drawn) [A03, alaproclate] | 3.9 and 4.04 | C (C = 100% increase versus control) | A (A >20%) | PRMT4 inhibition (PRMT4): not PRMT1 or 4; SirT1 increase [1]: SirT1 increases similar to those seen in the E4-N2a cells; PRMT8 protein levels [2]: does not alter PRMT8 protein levels; SirT1 mRNA level higher than DMSO control (SirT1 mRNA): 12%; PRMT8 inhibition, ranking (PRMT8; cell-free assay, 0.25 μM): greatest inhibition; PRMT8 inhibition (PRMT8; cell-free assay): inhibit PRMT8; IC50 (PRMT8; cell-free assay, read-out: PRMT8 inhibition IC50): ~125 nM; dose at maximum of PRMT8 inhibition dose response (PRMT8; hormetic profile, plateau up to 10 μM): 0.25 µM; ApoE4 binding to the SirT1 promoter [3]: pronounced decrease; RNA polymerase binding to the SirT1 promoter [3]: increased binding; PRMT1 inhibition (PRMT1): not PRMT1 or 4; EC50 ([4]; Mus musculus, E4-N2a cells, AlphaLISA, read-out: SirT1 increase EC50): ~2300 nM; SirT1 increase ([4]; N2a-E4 cells): increased SirT1 in a dose dependent fashion
2 | CC(N)C(=O)OC(C)(C)Cc1ccncc1 (stereo not drawn) [MP48] | – | – | – | ApoE4 binding to the SirT1 promoter [3]: decreased ApoE4; RNA polymerase binding to the SirT1 promoter [3]: increased RNA polymerase binding; SirT1 mRNA levels in the brain (E4-AD mice): increase SirT1 mRNA levels
3 | C[C@H](N)C(=O)NC1Cc2ccccc2C1 [MP-56, (S)-2-amino-N-(2,3-dihydro-1H-inden-2-yl)propanamide] | 1.81 | C (C = 100% increase versus control) | A (A >20%) | –
4 | C[C@H](N)C(=O)NC(C)(C)Cc1ccc(CC(F)(F)F)cc1 [MP-58, (S)-2-amino-N-(2-methyl-1-(4-(2,2,2-trifluoroethyl)phenyl)propan-2-yl)propanamide] | 1.28 | C (C = 100% increase versus control) | A (A >20%) | –
5 | C#Cc1ccc(CC(C)(C)NC(=O)[C@H](C)N)cc1 [MP-59, (S)-2-amino-N-(1-(4-ethynylphenyl)-2-methylpropan-2-yl)propanamide] | 2.49 | A, A (A >20%) | A, A (A >20%) | –
6 | COC(=O)N[C@H]1Cc2ccccc2CNC1=O [MP-70] | 0.59 | A, A (A >20%) | A, A (A >20%) | –
7 | O=C1NCN[C@H]1Cc1ccc(Cl)cc1 [MP-72, (S)-5-(4-chlorobenzyl)imidazolidin-4-one] | 11.07(2) | A, A (A >20%) | A, A (A >20%) | –
8 | O=C(N[C@H]1Cc2ccccc2CNC1=O)OCc1ccccc1 [MP-73, (S)-benzyl (3-oxo-2,3,4,5-tetrahydro-1H-benzo[c]azepin-4-yl)carbamate] | 0.68 | a, a (a <250%) | a, a (a <250%) | –
9 | O=C(N[C@H]1Cc2ccccc2CNC1=O)OCC1c2ccccc2-c2ccccc21 [MP-74, (S)-(9H-fluoren-9-yl)methyl (3-oxo-2,3,4,5-tetrahydro-1H-benzo[c]azepin-4-yl)carbamate] | 1.55 | a, a (a <250%) | a, a (a <250%) | –
10 | CC(C)Oc1ccc(-c2c[nH]cc2CN(C)CCN)cc1 [MS23] | – | – | – | PRMT4 inhibition (PRMT4): inhibits all 3 enzymes; PRMT8 inhibition (PRMT8; cell-free assay): inhibits all 3 enzymes

Further lines, with some results ahead:

Row | PAMPA (PAMPA) | Structure (SMILES) | SirT1 SOμM [4] | SirT1 SμM [4] | other results
11 | 2.25 and 2.38 | C[C@H](N)C(=O)NC(C)(Cc1ccc(F)cc1)Cc1ccc(F)cc1 [MP-51, (S)-2-amino-N-(1,3-bis(4-fluorophenyl)-2-methylpropan-2-yl)propanamide] | C (C = 100% increase versus control) | A (A >20%) | –
12 | 1 | C[C@@H](N)C(=O)NC(C)(Cc1ccc(F)cc1)Cc1ccc(F)cc1 [MP-52, (R)-2-amino-N-(1,3-bis(4-fluorophenyl)-2-methylpropan-2-yl)propanamide] | A, A (A >20%) | A, A (A >20%) | –
13 | 0.49 | CC(=O)c1ccc(CC(C)(C)NC(=O)[C@H](C)N)cc1 [MP-53, (S)—N-(1-(4-acetylphenyl)-2-methylpropan-2-yl)-2-aminopropanamide] | B (B >50%) | A (A >20%) | –
14 | 5.06 | C[C@H](N)C(=O)Nc1ccc2ccccc2c1 [MP-55, (S)-2-amino-N-(naphthalen-2-yl)propanamide] | B (B >50%) | A (A >20%) | –
15 | 1.6(2) | C[C@H](N)C(=O)Nc1ccccc1-c1ccc(F)cc1 [MP-57, (S)-2-amino-N-(4′-fluoro-[1,1′-biphenyl]-2-yl)propanamide] | B (B >50%) | A (A >20%) | –
16 | 0.29 | CC(C)(Cc1ccc(Br)cc1)NC(=O)[C@@H](N)CCC(=O)O [MP-61, (S)-4-amino-5-((1-(4-bromophenyl)-2-methylpropan-2-yl)amino)-5-oxopentanoic acid] | B (B >50%) | A (A >20%) | –
17 | 1.67 | C#CC[C@H](N)C(=O)NC(C)(C)Cc1ccc(Br)cc1 [MP-62, (S)-2-amino-N-(1-(4-bromophenyl)-2-methylpropan-2-yl)pent-4-ynamide] | B (B >50%) | A (A >20%) | –
18 | 2.71 | CC(N)C(=O)OC(C)(C)Cc1ccc(C(F)(F)F)cc1.Cl (stereo not drawn) [MP-76, 2-methyl-1-(4-(trifluoromethyl)phenyl)propan-2-yl 2-aminopropanoate hydrochloride] | A, A (A >20%) | A, A (A >20%) | –
19 | 1.61 | C[C@H](NC(=O)OC(C)(C)C)C(=O)NC(C)(C)Cc1ccc(C(F)(F)F)cc1 [MP-77, (S)-tert-butyl (1-((2-methyl-1-(4-(trifluoromethyl)phenyl)propan-2-yl)amino)-1-oxopropan-2-yl)carbamate] | a, a (a <250%) | a, a (a <250%) | –
20 | 1.93 | C[C@H](N)C(=O)NC(C)(C)Cc1ccc(C(F)(F)F)cc1 [MP-78, (S)-2-amino-N-(2-methyl-1-(4-(trifluoromethyl)phenyl)propan-2-yl)propanamide hydrochloride] | B (B >50%) | A (A >20%) | –
21 | 1.74 | CC(C)(N)C(=O)NCCc1ccc(Cl)cc1 [MP-79, 2-amino-N-(4-chlorophenethyl)-2-methylpropanamide] | B (B >50%) | A (A >20%) | –
